Values of other authors in patent publication US10302625B2, “Peripheral measure of central brain inflammation, markers therefor and uses thereof” (CENTRE FOR ADDICTION AND MENTAL HEALTH, priority 2015, dated 2019).

Molecular target: T1, TSPO (Sus scrofa, UniProt Q6UN27)
T1 sequence (Q6UN27 1-169): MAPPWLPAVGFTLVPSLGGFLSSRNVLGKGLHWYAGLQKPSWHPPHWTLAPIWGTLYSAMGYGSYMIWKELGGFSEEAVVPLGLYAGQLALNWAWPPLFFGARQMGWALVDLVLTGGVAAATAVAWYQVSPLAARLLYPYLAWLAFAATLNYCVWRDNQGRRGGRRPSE
Settings: literature ref 19

affinity for TSPO: high, selective affinity for TSPO
Compound: CC(=O)N(Cc1ccccc1OCC[18F])c1cnccc1Oc1ccccc1 [[18F]FEPPA]
